Results reported in US20160296437A1, “ORAL CARE ZINC COMPOSITIONS” (COLGATE-PALMOLIVE COMPANY, priority 2013, published 2016).

Columns and labels:
[1] = tested on: Actinobacillus actinomycetemcomitans (Aa) ATCC cat#29522; assay: Bacterial invasion of human periodontal ligament fibroblasts by Actinobacillus actinomycetemcomitans (internalized colony count); format: cell-based; details: for reduces internalized Actinobacillus actinomycetemcomitans: versus Aa alone, HPdLF cells
Description: (§1) Human periodontal ligament fibroblasts (HPdLF, Lonza cat#CC-7049) are seeded onto a plate and incubated at 37° C. in 5% CO2 overnight using SCGM bullet kit (Lonza, #CC-3205) containing Stromal cell basal medium, hFGF-B, insulin, FBS and GA-1000.
(§2) Pathogenic bacteria Actinobacillus actinomycetemcomitans (Aa) ATCC cat#29522 or Porphyromonas gingivalis (Pg) ATCC cat#33277) are incubated overnight at 37° C. (using tryptic soy broth for Actinobacillus actinomycetemcomitans and half-strength brain heart infusion (supplemented with yeast extract, hemin and vitK1) for Porphyromonas gingivalis). The optical density (OD) at 610 nm is read. The bacteria are centrifuged at 8000 rpm for 10 mins and the pellet resuspended in cell culture media and diluted to OD610 of 0.1 to 0.2.
(§3) The test sample (dissolved in water) is added to the cells and incubated at 37 C in 5% CO2 incubator for 30 minutes before the bacteria are added. The cells are infected with bacteria by adding the resuspended bacteria to the cells and further incubating at 37° C. in 5% CO2 incubator for 90 to 120 minutes.
The cells are washed five times with PBS to remove non-adherent bacteria. Fresh cell culture medium containing 1× penicillin (100 IU) and streptomycin (100 μg/ml) is added and the cells incubated at 37° C. in 5% CO2 incubator for 2 hours to kill extracellular bacteria. The medium is then removed and the cells washed three times with PBS. 1 ml 1% saponin solution in PBS is added to the infected cells for 5 minutes at. 37° C. to lyse the cells and release internalized bacteria. Dilutions (serial dilutions in PBS with dilution factor 10) are plated onto a suitable medium using a 100 μl sample and spread with a sterilized stick before incubating in an anaerobic chamber at 37° C. for 2-3 days and counting the resultant bacterial colonies.

[2] = tested on: Porphyromonas gingivalis (Pg) ATCC cat#33277; assay: Bacterial invasion of human periodontal ligament fibroblasts by Porphyromonas gingivalis (internalized colony count); format: cell-based
Description: as §1, §2, §3
The cells are washed five times with PBS to remove non-adherent bacteria. Fresh cell culture medium containing 1× penicillin (100 IU) and streptomycin (100 μg/ml) is added and the cells incubated at 37° C. in 5% CO2 incubator for 2 hours to kill extracellular bacteria. […]

SMILES	Bacterial Count ([1]; Table 2, internalized Aa in HPdLF cells, sample at 8 ppm, Aa alone 178)	reduces internalized Actinobacillus actinomycetemcomitans ([1]; Table 2 experiment, at 8 ppm)	Bacterial Count ([2]; Table 1, internalized Pg in HPdLF cells pretreated 30 minutes with sample, ZnO concentration not given, Pg alone 11460)	reduces internalized Porphyromonas gingivalis ([2]; Table 1 experiment, versus Pg alone, HPdLF cells)	Bacterial Count ([1]; Table 1, internalized Aa in HPdLF cells pretreated 30 minutes with sample, ZnO concentration not given, Aa alone 11800)	reduces internalized Actinobacillus actinomycetemcomitans ([1]; Table 1 experiment)	Bacterial Count ([1]; Table 2, internalized Aa in HPdLF cells, sample at 4 ppm, Aa alone 178)	reduces internalized Actinobacillus actinomycetemcomitans ([1]; Table 2 experiment, at 4 ppm)
O=C([O-])CC(O)(CC(=O)[O-])C(=O)[O-].O=C([O-])CC(O)(CC(=O)[O-])C(=O)[O-].[Zn+2].[Zn+2].[Zn+2] [ZnCitrate, zinc citrate]	64	approximately 66%	–	–	–	–	–	–
[O]=[Zn] [ZnO, zinc oxide]	–	–	10760	approximately 6%	10040	approximately 15%	137	approximately 23%
